Source: PMC11480411, “Mucosal sugars delineate pyrazine vs pyrazinone autoinducer signaling in Klebsiella oxytoca” (Nature Communications, 2024)
“And” between values parts separate entries of the source, which are not always exact repeats. Identical values can stand only once.

Tests used:
K. oxytoca = assay: Culture growth (OD600) with sialic acid supplementation; type: cell-based, Klebsiella oxytoca; conditions: M9+CAS with sialic acid, peer review file, not added to the study
Protocol: as 2 times the recorded value). Importantly, all cultures in this experiment grew. […]
supplemented cultures. All cultures had reached stationary phase after 24 hours. While Neu5Gc cultures did grow slower than Neu5Ac cultures, the term suppression was incorrect. Therefore, we deleted text around Neu5Gc suppression and have changed line 123 to now read: […]
the SI. The following growth analysis was not added to the study.
2. Fig3 describes the role of PLP-enzyme for the production of pyrazines (features 5-9). From
Fig.3a it is clear that features 5 and 7 are different from 6, 8, and 9. Are there functional differences between these 2 groups of compounds in terms of siderophore production? […]
complementation of the pyr mutant with feature 7 could induce siderophore production (Fig4).
What about the features from the other group (6, 8, and 9)?
To address this comment, we performed RNA-seq analysis feeding compound 6 and looked at regulated genes/operons. Similar to compound 7, compound 6 supplementation increased the […]
a table listing specific genes, is now included in the SI. As such, lines 345-348 now read: […]
compound also differentially regulated the transcriptome (201 genes with Padj < 0.05; abs(log2FC) > 1) and enhanced the transcription of genes related to iron acquisition and iron metabolism (Supplemental Information).”
(also on this page, place not known: value ). PLP -enzyme -9). […]

[1] = system: wildtype K. oxytoca ATCC 8724; assay: Leupeptin detection in culture extracts by HPLC-QTOF-MS; type: cell-based, Klebsiella oxytoca; conditions: added to cultivation medium
Protocol: 5 mL of the leupeptin reporter strain was cultured aerobically in 10 g/L of LB (Becton Dickinson), yeast extract, GAM (HiMedia Laboratories), horse liver extract (HiMedia Laboratories), malt extract (VWR), meat extract (HiMedia Laboratories), YPD (Dot Scienticifc), brain heart infusion (Becton Dickinson), porcine mucin (Sigma-Aldrich, M1778), clostridial (Becton Dickinson), TSB (VWR), or casamino acid supplemented (5 g/L, VWR) M9 minimal salts (MP Biomedicals) at 30 °C for 24 h at 250 rpm. Cultures were lysed via sonication, centrifuged, and 150 µL of the supernatants were aliquoted into black well clear bottom 96 well plates. GFP fluorescence measurements were performed on a BioTek Synergy H1 plate reader with an excitation wavelength of 488 nm and an emission wavelength of 525 nm. For the carbohydrate screen, the leupeptin reporter strain was cultured in M9 minimal medium (MPbio) supplemented with casamino acid (5 g/L, VWR) and 0.4% indicated sugar aerobically at 30 °C for 24 h at 250 rpm.
For MS-based determination of leupeptin activation, wildtype K. oxytoca ATCC 8724 was cultured in 5 mL of M9 minimal medium supplemented with 5 g/L casamino acids and 0.4% Neu5Ac. […] To measure the area under the curves for specific molecular features, the exact monoprotonated [M + H]^+ mass was calculated and extracted ion chromatographs (EICs) with a 10-ppm error were constructed. […]

[2] = target: T1, histamine receptor H4 (HRH4) (Homo sapiens, UniProt Q9H3N8); assay: PRESTO-Tango GPCR screen and dose-response; type: cell-based; conditions: for HRH4 dose-response raw reporter signal (Fig. 5b source data): replicate wells
T1 construct: expressed in transfected cells; host or cells: HTLA cells (HEK293 line stably expressing β-arrestin-TEV and tTA-Luciferase)
Protocol: (§1) The PRESTO-Tango analyses were performed as previously published. Briefly, HTLA cells, a HEK293 cell line that stably expresses β-arrestin-TEV and tTA-Luciferase (a kind gift from Gilad Barnea, Brown University), were plated in 96-well tissue culture plates (Eppendorf) in DMEM containing 10% FBS and 1% Penicillin/Streptomycin. One day after plating (after reaching approximately 90% confluence), 200 ng per well GPCR-Tango plasmids[37] in 20 μL DMEM were individually mixed with 400 ng polyethylenimine (Polysciences) in an equal volume of DMEM and incubated for 20 min at room temperature before adding the transfection mixture to the HTLA cells. 16-24 h after transfection, medium was replaced with 180 μL fresh DMEM containing 1% Penicillin/Streptomycin and 10 mM HEPES and 20 μL of 3 or 3-Homo to reach a final concentration of 100 μM. Supernatants were aspirated 20 h after stimulation and 50 μl per well of Bright-Glo solution (Promega) diluted 20-fold with PBS containing 20 mM HEPES was added into each well. After 15 min incubation at room temperature, luminescence was quantified using a Spectramax i3x microplate reader (Molecular Devices). Activation fold for each sample was calculated by dividing relative luminescence units (RLU) for each condition by RLUs from PBS control. Dose response curves of each chemical were performed in a similar way with varying the ligand concentration from 10^−4 M to 10^−15 M.

HRH3 = target: T2, HRH3 (Homo sapiens, UniProt Q9Y5N1); assay: PRESTO-Tango GPCR screen and dose-response; type: cell-based; conditions: for HRH3 dose-response raw reporter signal (Fig. 5b source data): replicate wells
T2 construct: expressed in transfected cells; host or cells: HTLA cells (HEK293 line stably expressing β-arrestin-TEV and tTA-Luciferase)
Protocol: as §1

HRH2 = target: T3, HRH2 (Homo sapiens, UniProt P25021); assay: PRESTO-Tango GPCR screen and dose-response; type: cell-based; conditions: for HRH2 dose-response raw reporter signal (Fig. 5b source data): replicate wells
T3 construct: expressed in transfected cells; host or cells: HTLA cells (HEK293 line stably expressing β-arrestin-TEV and tTA-Luciferase)
Protocol: as §1

HRH1 = target: T4, HRH1 (Homo sapiens, UniProt P35367); assay: PRESTO-Tango GPCR screen and dose-response; type: cell-based; conditions: for HRH1 dose-response raw reporter signal (Fig. 5b source data): replicate wells
T4 construct: expressed in transfected cells; host or cells: HTLA cells (HEK293 line stably expressing β-arrestin-TEV and tTA-Luciferase)
Protocol: as §1

∆pyr K. oxytoca = assay: RNA-seq of compound-supplemented ∆pyr K. oxytoca; type: cell-based, Klebsiella oxytoca ATCC 8724; conditions: 10 µM
Protocol: A ∆pyr K. oxytoca glycerol stock was streaked onto an LB-Agar plate supplemented with spectinomycin (50 µg/mL) and incubated aerobically at 30°C for 24 h in a stationary incubator. Single colonies were grown for 24 h aerobically in 5 mL of M9 minimal medium supplemented with 5 g/L casamino acids and 0.4% D-galactose at 30 °C and 250 rpm. Each ∆pyr K. oxytoca overnight culture was diluted 1:1000 into fresh medium (5 mL) and incubated aerobically at 30 °C and 250 rpm to mid-exponential growth (OD600 = 0.8). These conditions abrogated both detectable pyrazine and pyrazinone production. At this point, 10 µM of compound in DMSO, were added to the cultures; an equal volume of DMSO was added to cultures without compound as a solvent vehicle control. The cultures were incubated under aerobic conditions with the compounds for one hour at 30 °C and at 250 rpm. After incubation, the cultures were centrifuged, the supernatants were decanted, and the cell pellets were quickly resuspended in 5 mL of Bacterial RNAProtect (Qiagen). The samples were centrifuged again, and the pellets were frozen on dry ice and stored at −80 °C until RNA extraction. The processed cell pellets were thawed on ice and resuspended in 200 µL of lysis buffer (10 mM Tris, 1 mM EDTA, 5 mg/mL lysozyme, 12.5 µg/mL proteinase K [pH 8.0]) and incubated at room temperature for 10 min. The RNA was extracted via the Qiagen RNeasy Mini kit, treated with TURBO DNase in a total volume of 100 µL at room temperature for 30 min, and extracted again using an RNeasy Mini kit. RNA-seq analysis was conducted by the Yale Center for Genome Analysis. Sequences were aligned to the K. oxytoca ATCC 8724 genome (NC_016612.1). Differential expression analysis was performed through DESeq2 and pathway enrichment analysis was performed through the Funage-Pro web-based platform.

T4 sequence (P35367 whole entry): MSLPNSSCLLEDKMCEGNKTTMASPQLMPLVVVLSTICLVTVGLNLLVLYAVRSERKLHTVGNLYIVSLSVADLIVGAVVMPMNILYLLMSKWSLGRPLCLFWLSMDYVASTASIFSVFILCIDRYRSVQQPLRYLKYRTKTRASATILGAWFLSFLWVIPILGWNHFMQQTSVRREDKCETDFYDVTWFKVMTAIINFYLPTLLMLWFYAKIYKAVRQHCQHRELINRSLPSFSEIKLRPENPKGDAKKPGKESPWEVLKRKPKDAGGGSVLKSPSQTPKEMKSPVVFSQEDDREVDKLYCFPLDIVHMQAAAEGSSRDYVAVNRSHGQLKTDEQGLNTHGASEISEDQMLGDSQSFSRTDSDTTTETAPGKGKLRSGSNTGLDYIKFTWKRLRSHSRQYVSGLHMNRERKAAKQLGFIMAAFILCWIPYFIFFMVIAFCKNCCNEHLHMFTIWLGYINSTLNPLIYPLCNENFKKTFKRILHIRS
T2 sequence (Q9Y5N1 whole entry): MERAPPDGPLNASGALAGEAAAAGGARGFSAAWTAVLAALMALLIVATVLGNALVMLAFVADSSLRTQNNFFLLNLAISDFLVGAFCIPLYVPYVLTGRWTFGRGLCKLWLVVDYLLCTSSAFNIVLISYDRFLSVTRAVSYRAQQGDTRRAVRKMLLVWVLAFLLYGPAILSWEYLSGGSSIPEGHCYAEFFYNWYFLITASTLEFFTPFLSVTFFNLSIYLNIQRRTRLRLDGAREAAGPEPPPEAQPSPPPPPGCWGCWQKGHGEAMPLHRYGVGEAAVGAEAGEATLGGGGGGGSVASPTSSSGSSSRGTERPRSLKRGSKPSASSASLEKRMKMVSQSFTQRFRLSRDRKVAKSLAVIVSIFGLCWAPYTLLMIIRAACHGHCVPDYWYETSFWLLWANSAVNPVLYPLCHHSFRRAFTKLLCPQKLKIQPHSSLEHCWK
T1 sequence (Q9H3N8 whole entry): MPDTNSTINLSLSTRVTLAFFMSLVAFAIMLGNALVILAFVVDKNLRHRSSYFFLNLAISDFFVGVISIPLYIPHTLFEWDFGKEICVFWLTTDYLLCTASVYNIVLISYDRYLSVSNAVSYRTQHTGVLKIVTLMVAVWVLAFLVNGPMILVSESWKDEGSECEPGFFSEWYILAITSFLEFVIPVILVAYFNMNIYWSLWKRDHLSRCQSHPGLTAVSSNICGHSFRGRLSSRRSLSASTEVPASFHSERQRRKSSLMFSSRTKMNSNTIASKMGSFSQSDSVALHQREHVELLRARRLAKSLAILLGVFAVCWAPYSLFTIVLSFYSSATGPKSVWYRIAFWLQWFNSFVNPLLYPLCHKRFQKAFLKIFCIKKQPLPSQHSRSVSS
T3 sequence (P25021 whole entry): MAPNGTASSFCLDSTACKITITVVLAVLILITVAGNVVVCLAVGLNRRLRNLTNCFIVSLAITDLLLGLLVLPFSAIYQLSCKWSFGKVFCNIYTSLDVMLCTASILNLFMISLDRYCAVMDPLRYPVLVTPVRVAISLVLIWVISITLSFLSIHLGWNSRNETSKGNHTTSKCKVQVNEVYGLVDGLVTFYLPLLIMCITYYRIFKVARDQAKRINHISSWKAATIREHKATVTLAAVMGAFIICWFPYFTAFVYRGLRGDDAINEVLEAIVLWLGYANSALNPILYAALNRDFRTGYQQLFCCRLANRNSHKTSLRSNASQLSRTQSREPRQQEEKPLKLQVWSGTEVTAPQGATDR

For `O=C(CO)N[C@H]1[C@H]([C@H](O)[C@H](O)CO)OC(O)(C(=O)O)C[C@@H]1O` (stereo partly shown) [Neu5Gc, N-glycolneuraminic acid], the culture growth (K. oxytoca) was “grew about as fast as non-” and the “induction of leupeptin (1) production” value [1] was “unable to induce the production of 1”.
In the case of `O=C(O)CCc1nc(Cc2ccc(O)cc2)c(CCC(=O)O)nc1Cc1ccc(O)cc1` [compound 6], the “HRH4 dose-response raw reporter signal (Fig. 5b source data)” value (“HRH4 dose-response raw reporter signal” for short) ([2]; Log(10)Conc (M) -5) is reported as 295 and 312, the “HRH4 dose-response raw reporter signal” value ([2]; Log(10)Conc (M) -6) is reported as 348 and 448 and the “HRH4 dose-response raw reporter signal” value ([2]; Log(10)Conc (M) -7) is reported as 304 and 348. For the same molecule, the “HRH4 dose-response raw reporter signal” value ([2]; Log(10)Conc (M) -8) was 271 and 366, the “HRH4 dose-response raw reporter signal” value ([2]; Log(10)Conc (M) -9) was 318 and 324 and the “HRH4 dose-response raw reporter signal” value ([2]; Log(10)Conc (M) -10) was 271 and 230. For the same molecule, the “HRH4 dose-response raw reporter signal” value ([2]; Log(10)Conc (M) -11) was 342 and 265, the “HRH4 dose-response raw reporter signal” value ([2]; Log(10)Conc (M) -12) was 298 and 248 and the “HRH4 dose-response raw reporter signal” value ([2]; Log(10)Conc (M) -13) was 318 and 271. The “HRH4 dose-response raw reporter signal” value ([2]; Log(10)Conc (M) -14) was 374 and 307, the “HRH4 dose-response raw reporter signal” value ([2]; Log(10)Conc (M) -15) was 242 and 254 and the “activity towards HRH4” value ([2]; PRESTO-Tango dose-response) was “no activity”. For the same molecule, the “HRH3 dose-response raw reporter signal (Fig. 5b source data)” value (shortened to “HRH3 dose-response raw reporter signal”) (HRH3; Log(10)Conc (M) -4) was 162 and 59 and 171, the “HRH3 dose-response raw reporter signal” value (HRH3; Log(10)Conc (M) -5) was 94 and 85 and 156 and the “HRH3 dose-response raw reporter signal” value (HRH3; Log(10)Conc (M) -6) was 136 and 91 and 133. For the same molecule, the “HRH3 dose-response raw reporter signal” value (HRH3; Log(10)Conc (M) -7) was 124 and 91 and 106, the “HRH3 dose-response raw reporter signal” value (HRH3; Log(10)Conc (M) -8) was 133 and 85 and 109 and the “HRH3 dose-response raw reporter signal” value (HRH3; Log(10)Conc (M) -9) was 165 and 142 and 209. The “HRH3 dose-response raw reporter signal” value (HRH3; Log(10)Conc (M) -10) was 200 and 100 and 109, the “HRH3 dose-response raw reporter signal” value (HRH3; Log(10)Conc (M) -11) was 133 and 100 and 147 and the “HRH3 dose-response raw reporter signal” value (HRH3; Log(10)Conc (M) -12) was 115 (2×) and 142. The “HRH3 dose-response raw reporter signal” value (HRH3; Log(10)Conc (M) -13) was 139 and 91 and 133, the “HRH3 dose-response raw reporter signal” value (HRH3; Log(10)Conc (M) -14) was 127 and 83 and 121 and the “HRH3 dose-response raw reporter signal” value (HRH3; Log(10)Conc (M) -15) was 112 and 91 and 62. For the same molecule, the “activity towards HRH3” value (HRH3; PRESTO-Tango dose-response) was “no activity”, the “HRH2 dose-response raw reporter signal (Fig. 5b source data)” value (“HRH2 dose-response raw reporter signal” for short) (HRH2; Log(10)Conc (M) -4) was 68 and 65 and 32 and the “HRH2 dose-response raw reporter signal” value (HRH2; Log(10)Conc (M) -5) was 50 and 41 and 77. For the same molecule, the “HRH2 dose-response raw reporter signal” value (HRH2; Log(10)Conc (M) -6) was 59 and 62 and 44, the “HRH2 dose-response raw reporter signal” value (HRH2; Log(10)Conc (M) -7) was 27 and 50 and 35 and the “HRH2 dose-response raw reporter signal” value (HRH2; Log(10)Conc (M) -8) was 65 and 80 and 47. The “HRH2 dose-response raw reporter signal” value (HRH2; Log(10)Conc (M) -9) was 38 and 97 and 71, the “HRH2 dose-response raw reporter signal” value (HRH2; Log(10)Conc (M) -10) was 50 (2×) and 62 and the “HRH2 dose-response raw reporter signal” value (HRH2; Log(10)Conc (M) -11) was 56 and 27 and 53. The “HRH2 dose-response raw reporter signal” value (HRH2; Log(10)Conc (M) -12) was 53 and 35 and 24, the “HRH2 dose-response raw reporter signal” value (HRH2; Log(10)Conc (M) -13) was 59 and 53 and 35 and the “HRH2 dose-response raw reporter signal” value (HRH2; Log(10)Conc (M) -14) was 71 and 53 (2×). The “HRH2 dose-response raw reporter signal” value (HRH2; Log(10)Conc (M) -15) was 29 and 15 and 32, the “activity towards HRH2” value (HRH2; PRESTO-Tango dose-response) was “no activity” and the “HRH1 dose-response raw reporter signal (Fig. 5b source data)” value (“HRH1 dose-response raw reporter signal” below) (HRH1; Log(10)Conc (M) -4) was 49886 and 44465. The “HRH1 dose-response raw reporter signal” value (HRH1; Log(10)Conc (M) -5) was 46746 and 44008, the “HRH1 dose-response raw reporter signal” value (HRH1; Log(10)Conc (M) -6) was 46048 and 46004 and the “HRH1 dose-response raw reporter signal” value (HRH1; Log(10)Conc (M) -7) was 45284 and 44521. The “HRH1 dose-response raw reporter signal” value (HRH1; Log(10)Conc (M) -8) was 43675 and 43707, the “HRH1 dose-response raw reporter signal” value (HRH1; Log(10)Conc (M) -9) was 43412 and 43896 and the “HRH1 dose-response raw reporter signal” value (HRH1; Log(10)Conc (M) -10) was 42790 and 43339. For the same molecule, the “HRH1 dose-response raw reporter signal” value (HRH1; Log(10)Conc (M) -11) was 45349 and 45281, the “HRH1 dose-response raw reporter signal” value (HRH1; Log(10)Conc (M) -12) was 45812 and 46139 and the “HRH1 dose-response raw reporter signal” value (HRH1; Log(10)Conc (M) -13) was 46567 and 45803. The “HRH1 dose-response raw reporter signal” value (HRH1; Log(10)Conc (M) -14) was 45579 and 46637, the “HRH1 dose-response raw reporter signal” value (HRH1; Log(10)Conc (M) -15) was 40874 and 41360 and the “activity towards HRH1” value (HRH1; PRESTO-Tango dose-response) was “no activity”. The “number of differentially regulated genes” value (∆pyr K. oxytoca; one hour, vs DMSO, Padj < 0.05, abs(log2FC) > 1) was 201 genes and the “effect on enterobactin BGC transcription” value (∆pyr K. oxytoca; vs DMSO control, RNA-seq) was “increased enterobactin transcription levels”.
